These results are taken from article PMC12664080, “Tetrazole-containing naphthalene bis-sulfonamide Keap1-Nrf2 interaction inhibitors with unexpected binding modes” (Redox Biology, 2025).

In series [1] the target is T1, Keap1 Kelch domain (Homo sapiens, UniProt Q14145).
T1 construct: made in house
Kind of series: Differential scanning fluorimetry (DSF) thermal shift assay. Particulars: 10 μM compound; Keap1 vehicle control Ti = 61.3 ± 0.3 °C. Format: binding. On the procedure:
The DSF assays were carried out according to the previously described method. Solutions of the Keap1 Kelch domain protein (5 μM final concentration) and the small molecule inhibitor (10 μM final concentration) were prepared in DPBS at pH 7.4 (10 % final DMSO concentration, 20 μL final volume) in an Eppendorf tube. The solution was centrifuged briefly (1500 rpm, 60 s) to remove any particulates and mix the samples, followed by a 30 min incubation at RT. The samples were loaded into Tycho NT.6 capillaries (Nanotemper) in triplicate and positioned in the […] instrument. […] The fluorescence ratio vs temperature was plotted and the inflection temperature (Ti) of the profile was recorded. Changes in inflection (ΔTi) for the inhibitors were calculated by subtracting the mean Ti of the Keap1 sample plus vehicle from the mean Keap1 plus binder value (n = 3).

The next series relates to NQO1. Kind of series: NQO1 induction assay in Hepa1c1c7 cells. It is filed as cell-based, mouse. Particulars: Mus musculus, Hepa-1c1c7, 10 μM. The method, then:
The method using Hepa1c1c7 cells has been described previously. Briefly, cells were seeded into 96-well plates (2 × 10^4 cells/200 μL per well) then incubated overnight at 37 °C. The cells were treated with compound (10 μM final concentration) or vehicle (final DMSO concentration 0.1 % DMSO) and incubated for a further 24 h or 48 h. The culture medium was aspirated and the cells treated with lysis buffer (50 μL per well, 0.1 % Tween 20 in 2 mM EDTA (pH 7.5)) then agitated for 15 min. Enzyme reaction mixture was added to each well (200 μL of 25 mM Tris buffer (pH 7.5) containing BSA (0.067 %), Tween20 (0.01 %), FAD (5 μM), G6P (1 mM), NADP (30 μM), G6P dehydrogenase (40 units), MTT (0.03 %), menadione (50 μM)) for 5 min then stop solution was applied (40 μL of 10 % SDS, final concentration 1.5 % SDS). Following brief agitation of the plate, the absorbance at 595 nm was measured. The background optical density was measured from wells containing tissue culture medium, lysis buffer, enzyme and stop solutions in the absence of Hepa1c1c7 cells. The change in background-corrected NQO1 activity (change in optical density) relative to the control was determined for each compound.

Series [2] concerns the target T1, Keap1 Kelch domain. Kind of series: Fluorescence polarisation (FP) competition assay. It is filed as binding. Conditions: for IC50: 200 nM Keap1 Kelch domain, 1 nM FITC-β-DEETGEF-OH; for inhibition at 10 µM: read-out: FP percentage inhibition at 10 μM concentration of inhibitor. On the procedure:
The FP assays were carried out according to previously described methods [[23],[31], [32], [33], [34]]. […] Following incubation under slow agitation (30 min at rt in the absence of light), the plates were transferred to a PHERAstar microplate reader and the FP was recorded. All measurements were recorded in triplicate. The data were normalised to the control and then fitted to a standard four-parameter logistic function using the Origin Pro software.

Series [3] has as its target T1, Keap1 Kelch domain. Kind of series: Isothermal titration calorimetry (ITC). Conditions: 25 °C; read-out: ITC Kd. Format: binding. On the procedure: The measurements were performed as described previously. The small molecule inhibitor at 500 μM was titrated over 30 injections against 50 μM protein in buffer containing 25 mM HEPES (pH 7.4), 200 mM NaCl and 5 % DMSO. ITC experiments were performed using a MicroCal PEAQ-ITC instrument (Malvern Instruments, UK) at 25 °C with a stirring speed of 750 rpm. The first injection volume was of 0.3 μL followed by 29 injections of 1.3 μL and a gap of 120 s between each injection. Data analyses were performed as previously described. Each small molecule ITC measurement was performed in duplicate and resultant values obtained were averaged after independent analysis.

Series [4] in a line: 1D 1H NMR lineshape analysis of cis/trans rotamer exchange. Conditions: DMSO; for kA→B / ΔH^‡AB / ΔHAB: lineshape; for ΔH^‡AB: Eyring; for ΔHAB: van't Hoff.
Protocol: Exchange was quantified using a two-site exchange model [40] implemented in Julia, where resonances were fitted to calculate chemical shifts of the two states and the exchange rates kAB and kBA between them. […] Reported uncertainties were determined from the standard errors of the fits.
Exchange rates kAB and kBA were used to determine the relative populations pA=kBA/kAB+kBA and pB=kAB/kAB+kBA and were fitted to van't Hoff and Eyring equations (with unit transmission coefficient) to estimate the enthalpy and entropy changes and enthalpy and entropy of activation.
Another series deals with Keap1 (Homo sapiens, UniProt Q14145). Kind of series: Microscale thermophoresis (MST). Conditions: 10 nM Keap1.
The subject of a further series is Nrf2. Kind of series: Nrf2 luciferase reporter assay (MCF7 ARE-luciferase reporter cell line). Format: cell-based. Conditions: Homo sapiens; 100 μM (highest test concentration), MCF7 cells; read-out: peak fold induction of luciferase activity. The method, then:
The induction of luciferase activity in the stably transfected MCF7 ARE-luciferase reporter cell line was measured using an adaptation of a published procedure. […] The cells were treated with compound or vehicle control (1 % final DMSO concentration) and incubated for a further 24 h. The culture medium was aspirated and the cells were washed with 100 μL per well PBS. The cells were lysed using 75 μL per well lysis buffer (0.2 % Triton X-100 in 25 mM Tris pH 7.5) under gentle agitation at rt for 30 min. The samples were transferred to 500 μL Eppendorf tubes and centrifuged at 10000 g for 5 min at 4 °C. 50 μL of supernatant from each sample were transferred to a new 96 well plate. 50 uL of working reagent (100 mM Tris pH 8.0, 5 mM MgCl2, 100 μM coenzyme A, 80 μM luciferin, and 5 mM ATP) were added to each well and the luciferase activity was measured.

T1 sequence (Q14145 322-609): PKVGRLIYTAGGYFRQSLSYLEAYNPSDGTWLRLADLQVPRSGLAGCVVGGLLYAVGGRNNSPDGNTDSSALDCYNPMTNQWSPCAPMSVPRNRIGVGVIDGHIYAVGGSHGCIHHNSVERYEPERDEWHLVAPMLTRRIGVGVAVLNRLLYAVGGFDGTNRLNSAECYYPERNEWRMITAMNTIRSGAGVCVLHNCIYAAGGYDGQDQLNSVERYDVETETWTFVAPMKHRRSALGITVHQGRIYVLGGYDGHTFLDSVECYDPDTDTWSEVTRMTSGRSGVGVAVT
Chain of Keap1 (Q14145 322-609): as above

Turning to `COc1ccc(S(=O)(=O)N(CC(N)=O)c2ccc(N(CC(=O)O)S(=O)(=O)c3ccc(OC)cc3)c3ccccc23)cc1` [Compound 23, 2-(N-(4-(N-(2-Amino-2-oxoethyl)-4-methoxyphenylsulfonamido)naphthalen-1-yl)-4-methoxyphenylsulfonamido)acetic acid], the “DSF ΔTi” value on Keap1 Kelch domain [1] was 10.0 ± 0.2 °C. For the same compound, the fold induction at 10 µM in the series on NQO1 is 1.9 ± 0.05. Besides, the IC50 at Keap1 Kelch domain [2] stood at 143 ± 18 nM.

With `CCOC(=O)CN(c1ccc(N(CC(=O)O)S(=O)(=O)c2ccc(OC)cc2)c2ccccc12)S(=O)(=O)c1ccc(OC)cc1` [Compound 22, 2-(N-(4-(N-(2-Ethoxy-2-oxoethyl)-4-methoxyphenylsulfonamido)naphthalen-1-yl)-4-methoxyphenylsulfonamido)acetic acid], in the series with NQO1, the fold induction at 10 µM is 0.77 ± 0.18. On Keap1 Kelch domain [2], the “binding activity in FP assay” value was “inactive” and the inhibition at 10 µM stood at 0%.

As for `COc1ccc(S(=O)(=O)N(CC(N)=O)c2ccc(N(CC(N)=O)S(=O)(=O)c3ccc(OC)cc3)c3ccccc23)cc1` [Compound 4, 2,2'-(Naphthalene-1,4-diylbis(((4-methoxyphenyl)sulfonyl)azanediyl))diacetamide], the “DSF ΔTi” value on Keap1 Kelch domain [1] was 7.6 ± 0.1 °C.

For the compound `CCOC(=O)CN(c1ccc(N(CC(=O)OCC)S(=O)(=O)c2ccc(OC)cc2)c2ccccc12)S(=O)(=O)c1ccc(OC)cc1` [Compound 11, Diethyl 2,2'-(naphthalene-1,4-diylbis(((4-methoxyphenyl)sulfonyl)azanediyl))diacetate], the inhibition at 10 µM at Keap1 Kelch domain [2] came to 0%.

`COc1ccc(S(=O)(=O)N(CC#N)c2ccc(N(CC#N)S(=O)(=O)c3ccc(OC)cc3)c3ccccc23)cc1` [Compound 12, N,N'-(Naphthalene-1,4-diyl)bis(N-(cyanomethyl)-4-methoxybenzenesulfonamide)]: in the series with NQO1, the fold induction at 10 µM is 0.89 ± 0.24. For the same compound, the inhibition at 10 µM on Keap1 Kelch domain [2] is 0%.

In the case of `COc1ccc(S(=O)(=O)N(Cc2nnn[nH]2)c2ccc(N(Cc3nnn[nH]3)S(=O)(=O)c3ccc(OC)cc3)c3ccccc23)cc1` [Compound 13, N,N'-(Naphthalene-1,4-diyl)bis(N-((1H-tetrazol-5-yl)methyl)-4-methoxybenzenesulfonamide)], the Kd is 75.6 ± 33.9 nM on Keap1 Kelch domain [3] and 17.1 ± 2.6 nM at Keap1. For the same compound, the “DSF ΔTi” value at Keap1 Kelch domain [1] amounted to 20.4 ± 0.1 °C. In addition, the “Occupancy of the more shielded state (A)” value in series [4] (300 K) was 0.542 ±0.003; in series [4] (310 K), 0.548 ±0.001; in series [4] (320 K), 0.552 ±0.001. Besides, the kA→B in series [4] (300 K) worked out at 1.063 ± 0.008 s⁻¹; in series [4] (310 K), 1.459 ± 0.006 s⁻¹; in series [4] (320 K), 2.927 ± 0.010 s⁻¹. For the same compound, the “ΔH^‡AB” value in series [4] was 10.4 ± 2.29 kcal/mol. For the same compound, in series [4], the ΔHAB was -0.394 ± 0.0406 kcal/mol. The fold induction at 10 µM in the series with NQO1 amounted to 1.94 ± 0.22. The compound also yielded an IC50 at Keap1 Kelch domain [2] of 76 ± 3 nM.

`COc1ccc(S(=O)(=O)N(CC(=O)O)c2ccc(N(CC(=O)O)S(=O)(=O)c3ccc(OC)cc3)c3ccccc23)cc1` [Compound 2, 2,2'-(Naphthalene-1,4-diylbis(((4-methoxyphenyl)sulfonyl)azanediyl))diacetic acid, reference compound]: in the series on Nrf2, the fold induction at 100 µM turned out to be 10.9. In series [4] (300 K), the “Occupancy of the more shielded state (A)” value is recorded as 0.426 ±0.001 and the kA→B turned out to be 3.175 ± 0.005 s⁻¹. In series [4] (310 K), the “Occupancy of the more shielded state (A)” value amounted to 0.436 ±0.001 and the kA→B was 8.456 ± 0.024 s⁻¹. In addition, in series [4] (320 K), the “Occupancy of the more shielded state (A)” value was determined as 0.443 ±0.001 and the kA→B came out at 18.949 ± 0.04 s⁻¹. Also, in series [4], the “ΔH^‡AB” value turned out to be 15.8 ± 0.598 kcal/mol and the ΔHAB is -0.636 ± 0.0598 kcal/mol. Further, in the series with NQO1, the fold induction at 10 µM was 2.34 ± 0.35.

Turning to `COc1ccc(S(=O)(=O)N(Cc2nnc(C)o2)c2ccc(N(Cc3nnc(C)o3)S(=O)(=O)c3ccc(OC)cc3)c3ccccc23)cc1` [Compound 17, N,N'-(Naphthalene-1,4-diyl)bis(4-methoxy-N-((5-methyl-1,3,4-oxadiazol-2-yl)methyl)benzenesulfonamide)], the “DSF ΔTi” value on Keap1 Kelch domain [1] came to 0.6 ± 0.1 °C. In addition, in the series with NQO1, the fold induction at 10 µM was found to be 1.25 ± 0.18. Moreover, on Keap1 Kelch domain [2], the “binding activity in FP assay” value is “not tolerated” and the inhibition at 10 µM amounted to 0%.
